Data published in publication PMC8100298, “Histone deacetylase inhibitor resminostat in combination with sorafenib counteracts platelet-mediated pro-tumoral effects in hepatocellular carcinoma” (Scientific Reports, 2021).
Read-outs that look alike come from different tables or passages of the source.

Columns and labels:
Type in all cases: cell-based
[1] = test system: HCC cells; experiment: Western blots for acetylated α-Tubulin and p21; conditions: 1 µM or 3 µM, 24 hours (Fig. S1C)
Procedure: C. Western blots for acetylated α-Tubulin, total α-Tubulin, p21 and GAPDH (loading control).
Cells were treated with vehicle control (0.1 % DMSO), 1 µM or 3 µM resminostat for 24 hours. Grouped blots were composed from cropped parts of individual blots for each antibody. Original blots with exposures and indicated cropped areas can be found in the supplementary information.
D. Cell line screen determining the EC50s of resminostat in 74 cell lines representing 14 different ca ncer indications. In addition, peripheral blood mononuclear cells (PBMCs) from healthy donors were tested. Each dot represents an EC50.
(100×, 78440; Thermo Scientific, Massachusetts, US). Following incubation for 1 h at 4°C, […]
The protein concentration of the
Fisher Scientific, Massachusetts, US ). Equal amounts of protein lysates and a pre-stained […]
US) and transferred to PVDF membranes. The membranes were probed using the relevant […]
of the blots to X-ray films. […]
to adjust brightness and contrast across entire images. No other image manipulations were […]
intracellular FACS staining.

[2] = test system: HELA; experiment: Efficacy screening assay; conditions: 72 h, cervix
Procedure: (§1) The experiment was performed by Oncolead GmbH & Co. KG (Karlsfeld , Germany), based on a standardized screening procedure . Cell lines were purchased directly from the ATCC, NCI and DSMZ cell line c ollections. Cells used for the study had undergone less than 20 passages. To ensure the absence of potential contamination and wrong assignment, all cell lines were tested using a whole genome assay (Agilent, USA). All cell lines were grown as recommended by the suppliers and with addition of 100 U/mL penicillin G and 100 µg/mL; streptomycin. Cell growth and treatments were performed in Nunclon D 96 -well plates (NUNC, Germany). The optimal seeding density for each cell line was determined to ensure exponential growth for the duration of the experiment. All cells growing without anti-cancer agents were sub-conﬂuent by the end of the treatment, as determined by visual inspection.
(§2) After an initial 24 h pre-growth period, the compounds were added. The vehicle concentration […]
(§3) was 0.1% DMSO. After incubation at 37°C for 72 h, the culture medium was aspirated, and the cells were precipitated by the addition of 10% trichloroacetic acid (Sigma-Aldrich, Missouri, US). After overnight incubation at 4°C, the plates were washed three times with deionized water. The precipitates were then stained with SRB (0.4% wt/v sulforhodamine B solution in 1% acetic acid, Sigma-Aldrich, Missouri, US). Afterwards, the plates were washed six times with 1% acetic acid to remove unbound stain. After drying the plates at room temperature, the bound SRB was solubilized with 10 mM Tris base and the optical density was measured at 520 nm using a Victor2 plate reader (Perkin Elmer, Germany). Blank OD values were subtracted from mean OD values for each concentration. The nonlinear curve ﬁtting and EC50 calculations were per formed using XLﬁt and algorithm “205” (ID Business […]
(§4) For comparison of EC50 values in Figure 1F, one-way ANOVA with multiple comparison testing (Tukey) was performed. Multiplicity adjusted p -values for the EC50 with sorafenib versus resminostat for each cell line and comparison between cell lines for sorafenib are presented (95% confidence interval for significance testing). For comparison of EC50 data in Figure 2B, one-way ANOVA with multiple comparison testing (Tukey) was performed. Multiplicity adjusted p-values with 95% confidence interval was applied. For the invasion assays in Figure 4, one-way ANOVA with multiple comparison testing (Tukey) was performed. Multiplicity adjusted p-values with 95% confidence interval was applied. The adjusted p-values comparing vehicle control without vs. with platelets and compound

[3] = test system: SKNAS; experiment: Efficacy screening assay; conditions: 72 h, brain
Procedure: as §1, §2, §3, §4

[4] = test system: PC3; experiment: Efficacy screening assay; conditions: Homo sapiens, PC-3, PC3, prostate, 72 h
Procedure: as §1, §2, §3, §4

[5] = test system: PANC1; experiment: Efficacy screening assay; conditions: PANC1, pancreas
Procedure: as §1, §2, §3, §4

[6] = test system: UMUC3; experiment: Efficacy screening assay; conditions: UMUC3, bladder
Procedure: as §1, §2, §3, §4

[7] = test system: CLS439; experiment: Efficacy screening assay
Procedure: as §1, §2, §3, §4

[8] = test system: HCT116; experiment: Efficacy screening assay; conditions: HCT116, colon
Procedure: as §1, §2, §3, §4

[9] = test system: HCT15; experiment: Efficacy screening assay; conditions: HCT15, colon
Procedure: as §1, §2, §3, §4

[10] = test system: T24; experiment: Efficacy screening assay; conditions: T24, bladder
Procedure: as §1, §2, §3, §4

[11] = test system: MT3; experiment: Efficacy screening assay; conditions: MT3, breast
Procedure: as §1, §2, §3, §4

[12] = test system: MIAPACA2; experiment: Efficacy screening assay; conditions: Homo sapiens, MIA PaCa-2, MIAPACA2, pancreas, 72 h
Procedure: as §1, §2, §3, §4

[13] = test system: EJ28; experiment: Efficacy screening assay; conditions: EJ28, bladder
Procedure: as §1, §2, §3, §4

[14] = test system: CALU6; experiment: Efficacy screening assay; conditions: CALU6, lung
Procedure: as §1, §2, §3, §4

[15] = log of EC50, negative, read-out: log(EC50) (converted)

With `CN(C)Cc1ccc(S(=O)(=O)n2ccc(/C=C/C(=O)NO)c2)cc1` [resminostat, Resminostat] the “acetylation of α-Tubulin” value [1] was “hyperacetylation”, the p21 protein [1] was “accumulation” and the EC50 ([2]; Homo sapiens, HeLa, log of EC50, negative, read-out: log(EC50) (converted)) was 3310 nM. For the same molecule, the EC50 ([2]; Homo sapiens, HeLa, read-out: EC50) was 3320 nM, the EC50 ([2]; read-out: EC50) was 3320 nM and the EC50 ([3]; Homo sapiens, SK-N-AS, log of EC50, negative, read-out: log(EC50) (converted)) was 3550 nM. It also gave an EC50 ([3]; Homo sapiens, SK-N-AS, read-out: EC50) of 3540 nM, an EC50 ([3]; read-out: EC50) of 3540 nM and an EC50 [4, 15] of 1700 nM. It also gave an EC50 ([4]; read-out: EC50) of 1690 nM, an EC50 ([5]; Homo sapiens, PANC-1, 72 h, log of EC50, negative, read-out: log(EC50) (converted)) of 6760 nM and an EC50 ([5]; Homo sapiens, PANC-1, 72 h, read-out: EC50) of 6790 nM. It also gave an EC50 ([5]; 72 h, read-out: EC50) of 6790 nM, an EC50 ([6]; Homo sapiens, UMUC3, 72 h, log of EC50, negative, read-out: log(EC50) (converted)) of 3240 nM and an EC50 ([6]; Homo sapiens, UMUC3, 72 h, read-out: EC50) of 3240 nM. It also gave an EC50 ([6]; 72 h, read-out: EC50) of 3240 nM, an EC50 ([7]; 72 h, CLS439, bladder, log of EC50, negative, read-out: log(EC50) (converted)) of 776 nM and an EC50 ([7]; 72 h, CLS439, bladder, read-out: EC50) of 781 nM. For the same molecule, the EC50 ([7]; CLS439, bladder; 72 h; read-out: EC50) was 780 nM, the EC50 ([8]; 72 h, read-out: EC50) was 790 nM and the EC50 ([8]; Homo sapiens, HCT-116, 72 h, log of EC50, negative, read-out: log(EC50) (converted)) was 794 nM. For the same molecule, the EC50 ([8]; Homo sapiens, HCT-116, 72 h, read-out: EC50) was 792 nM, the EC50 ([9]; 72 h, read-out: EC50) was 2070 nM and the EC50 ([9]; Homo sapiens, HCT-15, 72 h, log of EC50, negative, read-out: log(EC50) (converted)) was 2090 nM. For the same molecule, the EC50 ([9]; Homo sapiens, HCT-15, 72 h, read-out: EC50) was 2070 nM, the EC50 ([10]; Homo sapiens, T-24, 72 h, log of EC50, negative, read-out: log(EC50) (converted)) was 933 nM and the EC50 ([10]; Homo sapiens, T-24, 72 h, read-out: EC50) was 937 nM. For the same molecule, the EC50 ([10]; 72 h, read-out: EC50) was 940 nM, the EC50 ([11]; 72 h, read-out: EC50) was 1890 nM and the EC50 ([11]; MT-3, 72 h, log of EC50, negative, read-out: log(EC50) (converted)) was 1910 nM. It also gave an EC50 ([11]; MT-3, 72 h, read-out: EC50) of 1890 nM, an EC50 [12, 15] of 2690 nM and an EC50 ([12]; read-out: EC50) of 2710 nM. For the same molecule, the EC50 ([13]; 72 h, read-out: EC50) was 4590 nM, the EC50 ([13]; Homo sapiens, EJ-28, 72 h, log of EC50, negative, read-out: log(EC50) (converted)) was 4570 nM and the EC50 ([13]; Homo sapiens, EJ-28, 72 h, read-out: EC50) was 4590 nM. The EC50 ([14]; 72 h, read-out: EC50) was 2930 nM, the EC50 ([14]; Homo sapiens, Calu-6, 72 h, log of EC50, negative, read-out: log(EC50) (converted)) was 2950 nM and the EC50 ([14]; Homo sapiens, Calu-6, 72 h, read-out: EC50) was 2930 nM.
